Test results published in patent US9683019B2, “Cyclic polypeptides for the treatment of heart failure” (priority 2013, dated 2017).
Where a SMILES comes first, the peptide text is derived from it. Bridges are numbered along the chain shown (N, C = ends). [ ]: non-standard residue; d: D form. pGlu = O=C1CC[C@@H](C(=O)O)N1; hCys = N[C@@H](CCS)C(=O)O

Experiments:
[1] = Plasma Stability Assay (LC-MS); format: in vitro ADME; details: male, Sprague-Dawley, heparinized rat plasma, 37° C., read-out: Plasma stability t½
Experimental: Plasma Stability Assay: Materials: Working solution: 1 mg/mL test article is prepared in Milli-Q water Extraction solution: Methanol:Acetonitrile:Water (1:1:1) with 0.1% Formic Acid and 400 ng/mL Glyburide. Plasma: Male Sprague-Dawley rat plasma (with sodium heparin), purchased from Bioreclamation LLC (Liverpool, N.Y.). Test article was prepared in one of the following biological matrices: heparinized rat plasma, heparinized rat whole blood or lung homogenate. […] Lung homogenate samples were prepared by diluting lung homogenate to 1 mg/ml protein concentration with phosphate buffered saline (PBS), followed by addition of 5 uL Working solution to 995 uL diluted lung homogenate. The samples were incubated at 37° C. with gentle shaking (65˜75 rpm) in a water bath incubator. […] Afterwards, a pipetting device (Tecan Temo) was used to transfer the supernatants to another plate and add 50 uL of water to all samples. The plate was vortexed prior to LC-MS analysis. […] The samples are incubated at 37° C. with gentle shaking (65˜75 rpm) in a water bath incubator. […] The reaction mixture is incubated at 37° C. for 1 hour. After completion of reaction, protein precipitation is performed using 300 uL of acetonitrile. […] Afterwards, a pipetting device (Tecan Temo) is used to transfer 125 uL supernatants to another plate and adds 50 uL of water to all samples. […]

[2] = Surrogate Activity-Based Plasma Stability Assay; format: in vitro ADME; details: rat
Description: Surrogate Activity-Based Plasma Stability Assay:
2) Calculate slope of value above and […]

[3] = target: T1, hAPJ (Homo sapiens, UniProt P35414); experiment: hAPJ Calcium Flux Assay; format: cell-based; details: Chem-5 APJ stable cells, calcium flux stimulation; read-out: hAPJ Ca2+ Flux EC50
T1 sequence (P35414 1-380): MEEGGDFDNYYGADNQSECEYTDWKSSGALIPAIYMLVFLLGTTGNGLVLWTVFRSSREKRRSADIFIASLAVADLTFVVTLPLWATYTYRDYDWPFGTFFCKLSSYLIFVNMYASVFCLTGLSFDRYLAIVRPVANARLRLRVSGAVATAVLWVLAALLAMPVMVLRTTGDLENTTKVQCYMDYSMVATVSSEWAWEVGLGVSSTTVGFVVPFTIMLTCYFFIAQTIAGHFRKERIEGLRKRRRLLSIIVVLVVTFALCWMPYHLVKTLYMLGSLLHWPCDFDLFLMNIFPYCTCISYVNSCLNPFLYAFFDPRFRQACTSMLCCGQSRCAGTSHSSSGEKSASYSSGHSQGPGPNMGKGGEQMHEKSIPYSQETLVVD
Experimental: Chem-5 APJ stable cells (Millipore # HTS068C) were plated in 384-well format with 10,000 cells/well in 25 ul growth media, then grown 24 hours in a 37° C. tissue culture incubator. One hour before the assay, 25 ul/well FLIPR Calcium 4 dye (Molecular Devices R8142) with 2.5 mM probenecid was added, and cells were incubated one hour in a 37° C. tissue culture incubator. Peptides were solubilized in HBSS, HEPES & 0.1% BSA buffer, and serially-diluted 10-fold, from 50 uM to 5 pM, in triplicate. FLIPR Tetra was used to add peptide to the cells with dye (1:5, for final peptide concentrations ranging from 10 uM to 1 pM). FLIPR dye inside the cells emitted fluorescence after binding to calcium, while fluorescence from outside the cells was masked. […] Readings were done for 3 minutes total, beginning 10 seconds before the peptide addition. Maximum-minimum values were calculated and plotted for each peptide concentration, and GraphPad prism software was used to calculate EC50 values at the curve inflection points, for calcium flux stimulation by peptides.

## CCCC[C@@H](NC(=O)[C@@H]1CCCN1C(=O)CNC(=O)[C@H](CCCCN)NC(=O)[C@@H]1CSSC[C@H](NC(=O)[C@@H]2CCCN2C(=O)[C@H](CCCNC(=N)N)NC(=O)[C@@H]2CCC(=O)N2)C(=O)N[C@@H](CC(C)C)C(=O)N[C@@H](CO)C(=O)N1)C(=O)NCCc1ccccc1 [Example 32, pE-R-P-C*-L-S-C*-K-G-P-(D-Nle)-NH(Phenethyl)]
[1]
  half-life: 6.28 h
[2]
  Surrogate Activity based Plasma stability t½: >16.67 h
  half-life: > 16.7 h

## CC(C)C[C@@H]1NC(=O)[C@@H](NC(=O)[C@@H]2CCCN2C(=O)[C@H](CCCNC(=N)N)NC(=O)[C@@H]2CCC(=O)N2)CCSSC[C@@H](C(=O)N[C@@H](CCCCN)C(=O)NCC(=O)N2CCC[C@H]2C(=O)N[C@H](Cc2ccccc2)C(=O)N[C@H](C)C(=O)N[C@H](Cc2ccccc2)C(=O)O)NC(=O)[C@H](CO)NC1=O [Example 36, pE-R-P-hC*-L-S-C*-K-G-P-f-a-f-OH] ([pGlu]RP[hCys]LSCKGP[dF][dA][dF]-OH; disulfide 4-7)
[2]
  half-life: 0.567 h
[3]
  EC50: 4.2 nM
